Reference: patent US20220411381A1, “PYRIMIDINEDIONE DERIVATIVES” (Bayer Aktiengesellschaft, priority 2019, published 2022)
Where two headings read alike, the source gives them in different places.

Tests used:
MDA-MB231 cells = assay: In vitro assay 2: BCAT cellular assay, leucine in medium of MDA-MB231 cells; assay type: cell-based; conditions: 24 hours incubation, leucine level in medium (LeuDH/diaphorase/resazurin readout), read-out: MDAMB-231 IC50
Experimental: In Vitro Assay 2: BCAT Cellular Assay
Levels of leucine were measured in medium of different tumor cell lines. The enzyme BOAT (Branched chain amino acid transferase) catalyzes the consumption of leucine.
Cells (U87-MG and MDA-MB231 from ATCC) were grown in Dulbecco's Modified Eagle Medium (DMEM) containing 10% fetal calf serum. They were harvested by trypsin and seeded into 96-well plates. Cells were incubated overnight at 37° C. in an atmosphere containing 5% carbon dioxide. The next day test compounds were added to each cell well. The final concentration of dimethylsulfoxide (DMSO) was 0.1% and DMSO controls were included. The plates were then placed in an incubator for 24 hours.
Leucine was measured in an enzymatic readout with leucine dehydrogenase (LeuDH) and diaphorase. Medium is deproteinized with perchloric acid. 30 μl of 1 M aqueous perchloric acid was added to each well and the plates were centrifuged.

[1] = target: T1, recombinant human BCAT1 enzyme (Homo sapiens, UniProt P54687); assay: In vitro assay 1a: BCAT1 biochemical assay (coupled LeuDH/NADH fluorescence readout)
T1 construct: purchased ATGen (South Korea) ATGP1479
T1 sequence (P54687 1-386): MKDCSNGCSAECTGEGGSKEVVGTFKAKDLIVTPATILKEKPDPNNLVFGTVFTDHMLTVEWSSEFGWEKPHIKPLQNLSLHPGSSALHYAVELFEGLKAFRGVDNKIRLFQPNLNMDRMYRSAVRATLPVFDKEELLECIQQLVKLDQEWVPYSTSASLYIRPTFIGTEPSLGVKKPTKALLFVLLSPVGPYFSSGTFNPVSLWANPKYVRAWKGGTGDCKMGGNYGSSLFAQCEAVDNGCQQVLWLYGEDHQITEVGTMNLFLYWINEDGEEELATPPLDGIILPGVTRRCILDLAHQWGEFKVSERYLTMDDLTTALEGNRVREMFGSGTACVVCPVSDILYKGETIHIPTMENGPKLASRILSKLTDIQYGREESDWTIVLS
Experimental: (§1) In Vitro Assay 1a and 1b: BCAT1 and BCAT2 Biochemical Assay
(§2) BOAT (Branched chain amino acid transferase) catalyzes transamination of the branched chain amino acid leucine to α-ketoisocaproate (KIC). The BOAT enzymatic reaction was measured in a coupled readout with leucine dehydrogenase (LeuDH) which catalyzes the Nicotinamide adenine dinucleotide (NADH) dependent reduction of KIC to leucine. NADH consumption is measured by fluorescent readout.
(§3) The biochemical reactions were performed at 32° C. in 384-well plates using a reaction volume of 51 μl and the following assay buffer conditions: 50 mM HEPES (2-[4-(2-hydroxyethyl)piperazin-1-yl]ethanesulfonic acid) pH 8.0, 50 mM aqueous solution of ammonium sulfate, 1 mM ethylenediaminetetraacetic acid, 2 mM dithiothreitol, 0.01% bovine serum albumine, 0.005% Brij 35 detergent, 0.5 μM PLP (pyridoxalphosphate), 10 μM NADH, and 50 μM α-ketoglutarate), and 100 μM leucine. […] Test compounds were used in a concentration range between 0.005 and 30 μM. The final DMSO concentration was 2%.
(§4) The reaction was initiated by addition of substrates (Leucine, α-KG, NADH).

[2] = target: T2, recombinant human BCAT2 enzyme (Homo sapiens, UniProt O15382); assay: In vitro assay 1b: BCAT2 biochemical assay (coupled LeuDH/NADH fluorescence readout); as to BCAT2 IC50 [M]: recombinant human BCAT2 0.75 nM
T2 construct: purchased ATGen (South Korea) ATGP1523
T2 sequence (O15382 28-392): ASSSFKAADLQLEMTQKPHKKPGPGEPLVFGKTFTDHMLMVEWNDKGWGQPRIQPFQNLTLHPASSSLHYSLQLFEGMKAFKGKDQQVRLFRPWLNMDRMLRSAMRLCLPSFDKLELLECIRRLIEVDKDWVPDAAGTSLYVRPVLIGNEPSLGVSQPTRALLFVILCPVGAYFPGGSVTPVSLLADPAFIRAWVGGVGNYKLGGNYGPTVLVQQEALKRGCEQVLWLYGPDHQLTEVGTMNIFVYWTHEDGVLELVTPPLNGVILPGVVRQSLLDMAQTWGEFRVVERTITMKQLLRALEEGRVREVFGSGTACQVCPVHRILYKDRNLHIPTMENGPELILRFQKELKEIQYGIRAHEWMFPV
Experimental: as §1, §2, §3, §4

[3] = recombinant human BCAT1 […], 32° C., 100 μM leucine, 50 μM α-ketoglutarate, NADH fluorescence over 90 min, read-out: BCAT1 IC50
[4] = recombinant human BCAT2 […], 32° C., 100 μM leucine, 50 μM α-ketoglutarate, NADH fluorescence over 90 min, read-out: BCAT2 IC50

| IC50 (MDA-MB231 cells; Homo sapiens, MDA-MB-231, 24 h) [µM] | IC50 [1, 3] [M] | IC50 [2, 4] [M] | SMILES | IC50 ([1]; BCAT1 IC50 [M]) [M] | IC50 (MDA-MB231 cells) [µM] | IC50 ([2]; BCAT2 IC50 [M]) [M] |
| --- | --- | --- | --- | --- | --- | --- |
| > 30 | 2e-07 | 3.5e-06 | COc1cc(C#N)c(Oc2ccccc2C)cc1-n1c(=O)cc(Br)[nH]c1=O (racemic) [Example 19, 4-[4-Bromo-2,6-dioxo-3,6-dihydropyrimidin-1(2H)-yl]-5-methoxy-2-(2-methylphenoxy)benzonitrile (rac)] |  |  |  |
| > 30 | 7e-07 | 4e-06 | COc1cc(C#N)c(Oc2ccccc2C)cc1-n1c(=O)cc(S(C)(=O)=O)[nH]c1=O (racemic) [Example 79, 4-[4-(Methanesulfonyl)-2,6-dioxo-3,6-dihydropyrimidin-1(2H)-yl]-5-methoxy-2-(2-methylphenoxy)benzonitrile (rac)] |  |  |  |
|  |  |  | COc1cc(C#N)c(Oc2ccccc2C)cc1-n1c(=O)cc(C(F)(F)F)[nH]c1=O (single isomer, unassigned) [Example 6, 4-[2,6-Dioxo-4-(trifluoromethyl)-3,6-dihydropyrimidin-1 (2H)-yl]-5-methoxy-2-(2-methylphenoxy)benzonitrile (atrop 2)] | 6.25e-07 | > 30 |  |
| 30 | 1.8e-07 |  | COc1cc(C#N)c(Oc2ccccc2C)cc1-n1c(=O)cc(C2CC2)[nH]c1=O (racemic) [Example 23, 4-(4-Cyclopropyl-2,6-dioxo-3,6-dihydropyrimidin-1(2H)-yl)-5-methoxy-2-(2-methylphenoxy)benzonitrile (rac)] |  | > 30 |  |
| > 30 |  | 4.52e-07 | COc1cc(C#N)c(Oc2ccccc2C)cc1-n1c(=O)cc(S(=O)(=O)c2ccccc2)[nH]c1=O (racemic) [Example 76, 4-[4-(Benzenesulfonyl)-2,6-dioxo-3,6-dihydropyrimidin-1(2H)-yl]-5-methoxy-2-(2-methylphenoxy)benzonitrile (rac)] |  | 20 |  |
|  | 1.45e-07 | 3e-06 | COc1cc(C#N)c(Oc2ccccc2C)cc1-n1c(=O)cc(Br)[nH]c1=O (single isomer, unassigned) [Example 21, 4-[4-Bromo-2,6-dioxo-3,6-dihydropyrimidin-1(2H)-yl]-5-methoxy-2-(2-methylphenoxy)benzonitrile (atrop 2)] |  |  |  |
|  | 2.83e-07 | 1.67e-06 | Cc1cccc(C)c1Oc1cc(-n2c(=O)cc(C(F)(F)F)[nH]c2=O)c(Cl)cc1C#N (racemic) [Example 38, 5-Chloro-2-(2,6-dimethylphenoxy)-4-(2,6-dioxo-4-(trifluoromethyl)-2,3-dihydropyrimidin-1(6H)-yl)benzonitrile (rac)] |  |  |  |
| > 30 |  |  | N#Cc1cc(F)c(-n2c(=O)cc(C(F)(F)F)[nH]c2=O)cc1Oc1c(F)cccc1F [Example 63, 2-(2,6-Difluorophenoxy)-4-[2,6-dioxo-4-(trifluoromethyl)-3,6-dihydropyrimidin-1 (2H)-yl]-5-fluorobenzonitrile] |  |  |  |

| SMILES | IC50 (MDA-MB231 cells; Homo sapiens, MDA-MB-231, 24 h) [µM] | IC50 [1, 3] [M] | IC50 [2, 4] [M] | IC50 ([1]; BCAT1 IC50 [M]) [M] | IC50 (MDA-MB231 cells) [µM] | IC50 ([2]; BCAT2 IC50 [M]) [M] |
| --- | --- | --- | --- | --- | --- | --- |
| COc1cc(C#N)c(Oc2ccccc2C)cc1-n1c(=O)cc(C(F)(F)F)[nH]c1=O (racemic) [Example 4, 4-[2,6-Dioxo-4-(trifluoromethyl)-3,6-dihydropyrimidin-1(2H)-yl]-5-methoxy-2-(2-methylphenoxy)benzonitrile (rac)] | > 30 |  |  | 1.62e-07 |  |  |
| Cc1ccccc1Oc1cc(-n2c(=O)cc(C(F)(F)F)[nH]c2=O)c(C)cc1C#N (racemic) [Example 7, 4-[2,6-Dioxo-4-(trifluoromethyl)-3,6-dihydropyrimidin-1(2H)-yl]-5-methyl-2-(2-methylphenoxy)benzonitrile (rac)] | 30 |  |  | 2.87e-07 | > 30 | 1.8e-06 |
| Cc1ccccc1Oc1cc(-n2c(=O)cc(S(=O)(=O)c3ccccc3)[nH]c2=O)c(F)cc1C#N [Example 74, 4-[4-(Benzenesulfonyl)-2,6-dioxo-3,6-dihydropyrimidin-1(2H)-yl]-5-fluoro-2-(2-methylphenoxy)benzonitrile] | > 30 |  |  |  | 30 |  |
